Results on eleven compounds are retold here after PubChem BioAssay AID216 (DTP/NCI, 2004).

Structures are written as SMILES. Several values for one entry are separate records, joined by “and”; a condition that tells them apart may be missing. Identical values can stand only once. Inconclusive results and toxic doses are left out.

This assay deals with BDF1 mice, P288 leukemia ip, survival T/C. In words: NCI In Vivo Anticancer Drug Screen. Data for tumor model P288 Lymphocytic Leukemia (intraperitoneal) in B6D2F1 (BDF1) mice. The conditions noted are these: endpoint: survival time, mean or median, higher = longer survival. As for the experimental part:
The antitumor activity of compounds was measured in mice bearing transplantable tumors. Survival or tumor size were measured and the results are expressed as the measurement made in the treated group (T) divided by the measurement made in the vehicle treated control group (C). The tumor model used in this assay is P288 Lymphocytic Leukemia (intraperitoneal) in B6D2F1 (BDF1) mice

The mark [1] stands for this setting: dose: 125.0 mg/kg/injection, schedule: Q01DX Z (ip), vehicle: carboxymethylcellulose (CMC).
Setting [2] is: dose: 20.0 mg/kg/injection, schedule: Q01DX010 (ip), vehicle: saline.
Where [3] appears, read: dose: 40.0 mg/kg/injection, schedule: Q01DX010 (ip), vehicle: saline.
Setting [4] is: dose: 12.5 mg/kg/injection, schedule: Q01DX010 (ip), vehicle: saline.
[5] abbreviates: dose: 50.0 mg/kg/injection, schedule: Q01DX010 (ip), vehicle: saline.
[6] abbreviates: dose: 100.0 mg/kg/injection, schedule: Q01DX010 (ip), vehicle: saline.

On to `CN(C)c1nc(N(C)C)nc(N(C)C)n1`, for which the T/C reads like this: (dose: 75.0 mg/kg/injection, schedule: Q01DX010 (ip), vehicle: saline) 90 % of control; under setting [1], 97 % of control.
In the case of `N#Cc1cn(C2OC(CO)C(O)C2O)c2ncnc(N)c12` (configuration not stated), the T/C reads like this: (dose: 0.12 mg/kg/injection, schedule: Q01DX Z (ip), vehicle: carboxymethylcellulose (CMC)) 114 % of control; (dose: 0.25 mg/kg/injection, schedule: Q01DX Z (ip), vehicle: carboxymethylcellulose (CMC)) 106 % of control; (dose: 0.5 mg/kg/injection, schedule: Q01DX Z (ip), vehicle: carboxymethylcellulose (CMC)) 93 % of control; (dose: 1.0 mg/kg/injection, schedule: Q01DX Z (ip), vehicle: carboxymethylcellulose (CMC)) 106 % of control; (dose: 8.0 micrograms/kg/injection, schedule: Q01DX Z (ip), vehicle: carboxymethylcellulose (CMC)) 103 % of control; (dose: 16.0 micrograms/kg/injection, schedule: Q01DX Z (ip), vehicle: carboxymethylcellulose (CMC)) 103 % of control. The T/C is, setting by setting: (dose: 31.0 micrograms/kg/injection, schedule: Q01DX Z (ip), vehicle: carboxymethylcellulose (CMC)) 97 % of control; (dose: 31.3 micrograms/kg/injection, schedule: Q01DX010 (ip), vehicle: saline) 155 % of control; (dose: 62.5 micrograms/kg/injection, schedule: Q01DX010 (ip), vehicle: saline) 105 % of control; (dose: 125.0 micrograms/kg/injection, schedule: Q01DX010 (ip), vehicle: saline) 105 % of control; (dose: 250.0 micrograms/kg/injection, schedule: Q01DX010 (ip), vehicle: saline) 105 % of control.
Take `C1CN1c1nc(N2CC2)nc(N2CC2)n1`: the T/C runs as follows: (dose: 0.13 mg/kg/injection, schedule: Q01DX010 (ip), vehicle: saline) 88 % of control; (dose: 0.25 mg/kg/injection, schedule: Q01DX010 (ip), vehicle: saline) 105 % of control and 88 % of control; (dose: 0.5 mg/kg/injection, schedule: Q01DX010 (ip), vehicle: saline) 111 % of control and 95 % of control; (dose: 1.0 mg/kg/injection, schedule: Q01DX010 (ip), vehicle: saline) 94 % of control.
As for `CCOC(=O)c1[nH]c2ccccc2c1CN(CCCl)CCCl`, the T/C under setting [2] was 95 % of control and the T/C under setting [3] is 100 % of control.
Regarding `Clc1ncnc2nc[nH]c12`, the T/C reads like this: (dose: 7.5 mg/kg/injection, schedule: Q01DX010 (ip), vehicle: saline) 88 % of control; (dose: 30.0 mg/kg/injection, schedule: Q01DX010 (ip), vehicle: saline) 94 % of control; (dose: 31.25 mg/kg/injection, schedule: Q01DX Z (ip), vehicle: carboxymethylcellulose (CMC)) 86 % of control and 95 % of control; (dose: 62.5 mg/kg/injection, schedule: Q01DX Z (ip), vehicle: carboxymethylcellulose (CMC)) 101 % of control and 102 % of control and 105 % of control; under setting [1], 112 % of control and 114 % of control and 97 % of control; (dose: 250.0 mg/kg/injection, schedule: Q01DX Z (ip), vehicle: carboxymethylcellulose (CMC)) 106 % of control (2×) and 110 % of control.
With `O=C(Nc1ccc(NC2=NCCN2)cc1)c1ccc(C(=O)Nc2ccc(NC3=NCCN3)cc2)cc1`, the T/C is 97 % of control (dose: 0.5 mg/kg/injection, schedule: Q01DX Z (ip), vehicle: saline); 109 % of control (dose: 1.0 mg/kg/injection, schedule: Q01DX Z (ip), vehicle: saline); 157 % of control and 184 % of control (dose: 2.0 mg/kg/injection, schedule: Q01DX010 (ip), vehicle: saline); 114 % of control (dose: 2.0 mg/kg/injection, schedule: Q01DX Z (ip), vehicle: saline); 189 % of control and 194 % of control (dose: 4.0 mg/kg/injection, schedule: Q01DX010 (ip), vehicle: saline); 152 % of control (dose: 4.0 mg/kg/injection, schedule: Q01DX Z (ip), vehicle: saline). The T/C (dose: 8.0 mg/kg/injection, schedule: Q01DX010 (ip), vehicle: saline) is 247 % of control and 284 % of control; the T/C (dose: 8.0 mg/kg/injection, schedule: Q01DX Z (ip), vehicle: saline) was 203 % of control; the T/C (dose: 16.0 mg/kg/injection, schedule: Q01DX010 (ip), vehicle: saline) was 115 % of control; the T/C (dose: 32.0 mg/kg/injection, schedule: Q01DX Z (ip), vehicle: saline) was 105 % of control.
Regarding `N=[N+]=CC(=O)OCC(N)C(=O)O` (configuration not stated), the T/C (dose: 3.13 mg/kg/injection, schedule: Q01DX010 (ip), vehicle: saline) is 94 % of control; the T/C (dose: 6.25 mg/kg/injection, schedule: Q01DX010 (ip), vehicle: saline) is 105 % of control; the T/C under setting [4] is 100 % of control.
In the case of `CC[C@]1(O)C[C@H]2CN(CCc3c([nH]c4ccccc34)[C@@](C(=O)OC)(c3cc4c(cc3OC)N(C=O)[C@H]3[C@@](O)(C(=O)OC)[C@H](OC(C)=O)[C@]5(CC)C=CCN6CC[C@]43[C@@H]65)C2)C1`, the T/C is 102 % of control (dose: 0.06 mg/kg/injection, schedule: Q01DX Z (ip), vehicle: water); 109 % of control (dose: 0.12 mg/kg/injection, schedule: Q01DX Z (ip), vehicle: water); 116 % of control (dose: 0.25 mg/kg/injection, schedule: Q01DX Z (ip), vehicle: water); 120 % of control and 101 % of control (dose: 0.5 mg/kg/injection, schedule: Q01DX Z (ip), vehicle: water).
Regarding `OC(CBr)C(O)C(O)C(O)CBr` (configuration not stated), the T/C under setting [5] was 114 % of control and 94 % of control; the T/C under setting [6] is 114 % of control and 94 % of control; the T/C (dose: 200.0 mg/kg/injection, schedule: Q01DX010 (ip), vehicle: saline) was 114 % of control and 94 % of control; the T/C (dose: 400.0 mg/kg/injection, schedule: Q01DX010 (ip), vehicle: saline) is 105 % of control and 114 % of control.
`Nc1ncnc2c1ncn2C1OC(COCc2ccccc2)C(OCc2ccccc2)C1OCc1ccccc1` (configuration not stated): the T/C is 94 % of control and 100 % of control (dose: 10.0 mg/kg/injection, schedule: Q01DX010 (ip), vehicle: saline); 111 % of control and 94 % of control under setting [2]; 105 % of control and 100 % of control under setting [3]; 94 % of control (dose: 80.0 mg/kg/injection, schedule: Q01DX010 (ip), vehicle: saline).
In the case of `COS(C)(=O)=O`, the T/C by setting is: under setting [4], 100 % of control; (dose: 12.5 mg/kg/injection, schedule: Q01DX Z (ip), vehicle: water) 109 % of control; (dose: 25.0 mg/kg/injection, schedule: Q01DX010 (ip), vehicle: saline) 100 % of control; (dose: 25.0 mg/kg/injection, schedule: Q01DX Z (ip), vehicle: water) 103 % of control; under setting [5], 87 % of control; under setting [6], 106 % of control. Under “dose: 100.0 mg/kg/injection, schedule: Q01DX Z (ip), vehicle: water”, the T/C was 97 % of control.
